The source of these data is US6747058B1.

Data set [1] in a line: Pharmacokinetics (tmax) after intravenous and nebulizer inhalation administration, rat. The class given is in vivo. As to conditions: blood; for Tmax: single dose; for Tmax at 14 day: multiple dose (14 day). On the procedure: (§1) Two animal species, rat and dog, are administered the formulation in a 14 day multiple dose inhalation study with a nebulizer. Results from the pharmacokinetic portion of the study indicate comparability between tmax values found for intravenous and inhaled delivery.

The conditions of data set [2]: cited from earlier work.
Data set [3] in a line: Pharmacokinetics (tmax) after intravenous and nebulizer inhalation administration, dog. The format is in vivo. To be noted: for Tmax at 14 day / Tmax: blood; for Tmax at 14 day: multiple dose (14 day). On the procedure: as §1

Each structure is given as a SMILES string. Values after ≈ are worked out from the molar mass of the structure shown.

One may read the Tmax as the time at which the peak concentration occurs.

For the compound `CCCCCc1cc(O)c2c(c1)OC(C)(C)[C@@H]1CCC(C)=C[C@@H]21`, the Tmax in data set [1] (inhaled or intranasal, 0.5 mg/kg, inhalation, 0.5 mg/kg, 1.25 minutes exposure, read-out: Average tmax (converted)) was 5.7 min; in data set [1] (inhaled or intranasal, 0.5 mg/kg, inhalation, 0.5 mg/kg, 1.25 minutes exposure, tmax minus duration of exposure, read-out: App. calc. tmax (converted)), 4.45 min; in data set [1] (inhaled or intranasal, 4.6 mg/kg, inhalation, 4.6 mg/kg, 15 minutes exposure, read-out: Average tmax (converted)) it was 33.3 min; in data set [1] (inhaled or intranasal, 4.6 mg/kg, inhalation, 4.6 mg/kg, 15 minutes exposure, tmax minus duration of exposure, read-out: App. calc. tmax (converted)), 18.3 min; in data set [1] (iv, 2 mg/kg, IV, 2 mg/kg, read-out: Average tmax (converted)), 2.1 min; in data set [1] (iv, 2 mg/kg, IV, 2 mg/kg, tmax minus duration of exposure, read-out: App. calc. tmax (converted)), 2.1 min. Besides, the Tmax in data set [3] (inhaled or intranasal, 2 mg/kg, inhalation, 2 mg/kg, 8 minutes exposure, single dose, read-out: Average tmax (converted)) was 15.6 min; in data set [3] (inhaled or intranasal, 2 mg/kg, inhalation, 2 mg/kg, 8 minutes exposure, single dose, tmax minus duration of exposure, read-out: App. calc. tmax (converted)), 7.6 min; in data set [3] (iv, 1 mg/kg, IV, 1 mg/kg, single dose, read-out: Average tmax (converted)), 1.8 min; in data set [3] (iv, 1 mg/kg, IV, 1 mg/kg, single dose, tmax minus duration of exposure, read-out: App. calc. tmax (converted)) it was 1.8 min. Further, the time to peak (Tmax) at 14 day in data set [1] (inhaled or intranasal, 2 mg/kg, inhalation, 2 mg/kg, 5 minutes exposure, read-out: Average tmax (converted)) was 6 min; in data set [1] (inhaled or intranasal, 2 mg/kg, inhalation, 2 mg/kg, 5 minutes exposure, tmax minus duration of exposure, read-out: App. calc. tmax (converted)), 1 min; in data set [1] (inhaled or intranasal, 5 mg/kg, inhalation, 5 mg/kg, 15 minutes exposure, read-out: Average tmax (converted)), 17.4 min; in data set [1] (inhaled or intranasal, 5 mg/kg, inhalation, 5 mg/kg, 15 minutes exposure, tmax minus duration of exposure, read-out: App. calc. tmax (converted)), 2.4 min; in data set [1] (inhaled or intranasal, 15 mg/kg, inhalation, 15 mg/kg, 45 minutes exposure, read-out: Average tmax (converted)) it was 46.2 min; in data set [1] (inhaled or intranasal, 15 mg/kg, inhalation, 15 mg/kg, 45 minutes exposure, tmax minus duration of exposure, read-out: App. calc. tmax (converted)), 1.2 min. Further, the Tmax at 14 day is 10.2 min in data set [3] (inhaled or intranasal, 2 mg/kg, inhalation, 2 mg/kg, 8 minutes exposure, read-out: Average tmax (converted)); 2.2 min in data set [3] (inhaled or intranasal, 2 mg/kg, inhalation, 2 mg/kg, 8 minutes exposure, tmax minus duration of exposure, read-out: App. calc. tmax (converted)); 22.2 min in data set [3] (inhaled or intranasal, 5 mg/kg, inhalation, 5 mg/kg, 20 minutes exposure, read-out: Average tmax (converted)); 2.2 min in data set [3] (inhaled or intranasal, 5 mg/kg, inhalation, 5 mg/kg, 20 minutes exposure, tmax minus duration of exposure, read-out: App. calc. tmax (converted)); 66 min in data set [3] (inhaled or intranasal, 15 mg/kg, inhalation, 15 mg/kg, 60 minutes exposure, read-out: Average tmax (converted)); 6 min in data set [3] (inhaled or intranasal, 15 mg/kg, inhalation, 15 mg/kg, 60 minutes exposure, tmax minus duration of exposure, read-out: App. calc. tmax (converted)). Also, the solubility in water in data set [2] was 3000 µg/mL (≈ 9.54 mM). The App. calc. tmax in data set [3] (IV, 1 mg/kg, single dose, tmax minus duration of exposure) was 1.9 min.
